From ChEMBL document CHEMBL1201862, “PubChem BioAssay data set” (2004)
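Tested at 5 concentrations; 48 h exposure; 96-well plates; endpoints linearly interpolated, else capped at highest concentration. GI50 marks 50% less growth.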 Activity calls are given as the source filed them. No stated cut-off is given here; in the data, active = GI50 up to about 1.1 µM and inactive = higher.

Experiments:
Test in all cases: NCI-60 cell line screen, 48 h
HT-29 = system: HT-29
SF-268 = system: SF-268
SK-OV-3 = system: SK-OV-3
SNB-75 = system: SNB-75
MDA-N = system: MDA-N
UACC-62 = system: UACC-62
TK-10 = system: TK-10
RXF 393 = system: RXF 393
IGROV-1 = system: IGROV-1
SR = system: SR
T47D = system: T47D
OVCAR-5 = system: OVCAR-5
U-251 = system: U-251
NCI-H522 = system: NCI-H522
SF-539 = system: SF-539
UO-31 = system: UO-31
SK-MEL-28 = system: SK-MEL-28
M14 = system: M14
MDA-MB-231 = system: MDA-MB-231
BT-549 = system: BT-549

Measured: GI50

N#CCCC1(CCC#N)CCCCCCC(CCC#N)(CCC#N)C(=O)C1=O
inactive: HT-29 > 100 µM | SF-268 > 100 µM | SK-OV-3 > 100 µM | SNB-75 > 100 µM | MDA-N > 100 µM | UACC-62 > 100 µM | TK-10 > 100 µM | RXF 393 > 100 µM | IGROV-1 > 100 µM | SR > 100 µM | T47D 11.9 µM | OVCAR-5 > 100 µM | U-251 > 100 µM | NCI-H522 > 100 µM | SF-539 > 100 µM | UO-31 3.08 µM | SK-MEL-28 > 100 µM | M14 > 100 µM

O=C(Cn1c(-c2ccccc2)cc2ccccc21)N1CCOCC1
inactive: HT-29 > 100 µM | SF-268 34.4 µM | SK-OV-3 > 100 µM | MDA-N > 100 µM | UACC-62 > 100 µM | MDA-MB-231 34.2 µM | TK-10 > 100 µM | RXF 393 > 100 µM | IGROV-1 > 100 µM | T47D > 100 µM | OVCAR-5 > 100 µM | U-251 45 µM | NCI-H522 > 100 µM | SF-539 67.1 µM | UO-31 > 100 µM | SK-MEL-28 > 100 µM | M14 > 100 µM

Clc1ccc(Cl)c(SCCCN2CCNCC2)c1
inactive: HT-29 14.6 µM | SF-268 16.6 µM | SK-OV-3 15.1 µM | SNB-75 13.4 µM | UACC-62 2.61 µM | BT-549 17.1 µM | MDA-MB-231 15 µM | TK-10 16.5 µM | RXF 393 14.4 µM | IGROV-1 18.2 µM | T47D 23.9 µM | OVCAR-5 15.5 µM | U-251 16.4 µM | NCI-H522 16.3 µM | SF-539 27.5 µM | UO-31 14.4 µM | SK-MEL-28 10.4 µM | M14 17.3 µM

COc1ccc(NC(C)=O)cc1C1CCC(=O)N1 (configuration not stated)
inactive: HT-29 > 100 µM | SF-268 > 100 µM | SK-OV-3 > 100 µM | SNB-75 > 100 µM | UACC-62 > 100 µM | MDA-MB-231 > 100 µM | TK-10 > 100 µM | IGROV-1 > 100 µM | T47D > 100 µM | OVCAR-5 > 100 µM | U-251 > 100 µM | NCI-H522 > 100 µM | SF-539 > 100 µM | UO-31 > 100 µM | SK-MEL-28 > 100 µM | M14 > 100 µM

COC(=O)[C@]1(C)CCC[C@@]2(C)C1CC[C@]13C=C(C(C)C)[C@H](CC21)CC3(Cl)C#N (some centres not stated)
inactive: HT-29 27.4 µM | SF-268 46.3 µM | SK-OV-3 > 100 µM | SNB-75 4.24 µM | UACC-62 37.7 µM | BT-549 35.6 µM | MDA-MB-231 42.2 µM | TK-10 > 100 µM | RXF 393 24.8 µM | IGROV-1 > 100 µM | SR 32.1 µM | T47D 14.1 µM | OVCAR-5 > 100 µM | U-251 19.8 µM | NCI-H522 26.5 µM | SF-539 78 µM | UO-31 64.3 µM | SK-MEL-28 36.1 µM | M14 38.4 µM

CC1(C)N=C(/C=N/O)C(C)(C)N1O
inactive: HT-29 > 100 µM | SF-268 > 100 µM | SK-OV-3 > 100 µM | SNB-75 > 100 µM | MDA-N > 100 µM | UACC-62 > 100 µM | MDA-MB-231 > 100 µM | TK-10 > 100 µM | RXF 393 > 100 µM | IGROV-1 > 100 µM | SR > 100 µM | T47D > 100 µM | OVCAR-5 > 100 µM | U-251 > 100 µM | NCI-H522 > 100 µM | SF-539 > 100 µM | UO-31 81.3 µM | SK-MEL-28 > 100 µM | M14 > 100 µM

CNc1nc(N)c(N=O)c(Nc2ccc(Br)cc2)n1
inactive: HT-29 > 100 µM | SF-268 72.9 µM | SNB-75 68.5 µM | MDA-N > 100 µM | UACC-62 > 100 µM | BT-549 > 100 µM | MDA-MB-231 > 100 µM | TK-10 > 100 µM | RXF 393 > 100 µM | IGROV-1 > 100 µM | SR > 100 µM | OVCAR-5 > 100 µM | U-251 61.8 µM | NCI-H522 > 100 µM | SF-539 > 100 µM | UO-31 9.57 µM | SK-MEL-28 > 100 µM

CC1=NN(c2cccc(Cl)c2)C(=N/c2nc3ccccc3s2)/C1=C\c1cccs1
inactive: HT-29 23.4 µM | SF-268 33.2 µM | SK-OV-3 25.9 µM | SNB-75 28 µM | MDA-N 73.8 µM | MDA-MB-231 38.9 µM | TK-10 45.7 µM | RXF 393 51.3 µM | IGROV-1 36 µM | SR 19.5 µM | T47D 39.4 µM | OVCAR-5 > 100 µM | U-251 24 µM | NCI-H522 27.9 µM | SF-539 42 µM | UO-31 60.8 µM | SK-MEL-28 36.2 µM | M14 70.1 µM

NCc1ccc(-c2ccc(CN)s2)s1
inactive: HT-29 > 100 µM | SK-OV-3 83.8 µM | SNB-75 > 100 µM | MDA-N > 100 µM | UACC-62 14.6 µM | MDA-MB-231 > 100 µM | TK-10 11.3 µM | RXF 393 > 100 µM | IGROV-1 10.9 µM | T47D 69.8 µM | OVCAR-5 56.2 µM | U-251 > 100 µM | NCI-H522 > 100 µM | SF-539 > 100 µM | UO-31 > 100 µM | SK-MEL-28 > 100 µM | M14 > 100 µM

O=[N+]([O-])c1cccc2nccc(NCCN3CCOCC3)c12
inactive: HT-29 13.5 µM | SF-268 20.5 µM | SK-OV-3 35.2 µM | SNB-75 16.5 µM | MDA-N 16.7 µM | UACC-62 > 10 µM | MDA-MB-231 21.7 µM | TK-10 23.7 µM | RXF 393 11.6 µM | IGROV-1 17.4 µM | SR 10.1 µM | T47D 23 µM | OVCAR-5 21.4 µM | U-251 22.2 µM | NCI-H522 3.95 µM | SF-539 20.3 µM | UO-31 27.2 µM | SK-MEL-28 17.9 µM | M14 15.9 µM

O=C1/C(=C/c2ccc(O)cc2)NC(=S)N1CN1CCCCC1
inactive: HT-29 43 µM | SF-268 89.1 µM | SK-OV-3 > 100 µM | SNB-75 > 100 µM | MDA-N > 100 µM | UACC-62 42.9 µM | MDA-MB-231 > 100 µM | TK-10 94 µM | IGROV-1 98.9 µM | SR 49.2 µM | OVCAR-5 > 100 µM | U-251 49.8 µM | NCI-H522 55.3 µM | UO-31 71.4 µM | SK-MEL-28 > 100 µM | M14 59.2 µM

CC(C)(C)C1CCC2c3c([nH]c4ccccc34)C3C(=O)N(c4ccc(C(=O)O)cc4)C(=O)C3C2C1 (configuration not stated)
inactive: HT-29 12.9 µM | SF-268 14.2 µM | SK-OV-3 17.5 µM | MDA-N 11.9 µM | UACC-62 14.2 µM | BT-549 14.5 µM | MDA-MB-231 15.5 µM | TK-10 17.5 µM | RXF 393 10.9 µM | IGROV-1 18.5 µM | SR 25 µM | OVCAR-5 21.9 µM | U-251 13.4 µM | NCI-H522 18.9 µM | SF-539 17.2 µM | UO-31 16.8 µM | SK-MEL-28 11.3 µM | M14 16.8 µM

Cc1ccc(-c2c(C#N)c(-c3ccc(Cl)cc3)c(C#N)c(=O)n2NS(=O)(=O)c2ccccc2)cc1
inactive: HT-29 > 100 µM | SF-268 67 µM | SK-OV-3 > 100 µM | SNB-75 47.5 µM | MDA-N > 100 µM | UACC-62 58.6 µM | BT-549 34.4 µM | MDA-MB-231 > 100 µM | TK-10 74.3 µM | RXF 393 32 µM | IGROV-1 33 µM | OVCAR-5 > 100 µM | U-251 74.8 µM | NCI-H522 38.1 µM | SF-539 44.9 µM | SK-MEL-28 > 100 µM | M14 > 100 µM

CC(CCOc1c2ccoc2cc2oc(=O)ccc12)C1=CC(=O)C(C)(C)O1 (configuration not stated)
inactive: HT-29 > 100 µM | SF-268 > 100 µM | SK-OV-3 > 100 µM | MDA-N > 100 µM | UACC-62 > 100 µM | BT-549 71 µM | MDA-MB-231 > 100 µM | TK-10 > 100 µM | RXF 393 > 100 µM | IGROV-1 > 100 µM | SR > 100 µM | OVCAR-5 > 100 µM | U-251 > 100 µM | NCI-H522 13.9 µM | SF-539 > 100 µM | UO-31 > 100 µM | SK-MEL-28 > 100 µM | M14 > 100 µM

C=CN(C=C)C(=O)Cn1cc(-c2ccccc2)nn1
inactive: HT-29 > 100 µM | SF-268 > 100 µM | SNB-75 > 100 µM | BT-549 > 100 µM | MDA-MB-231 > 100 µM | TK-10 > 100 µM | IGROV-1 > 100 µM | SR > 100 µM | OVCAR-5 > 100 µM | U-251 > 100 µM | NCI-H522 > 100 µM | SF-539 > 100 µM | SK-MEL-28 > 100 µM | M14 > 100 µM

C=C1C(=O)OC2/C=C(\C=O)CC/C=C(\C)C(O)C[C@@H]12 (some centres not stated)
inactive: HT-29 3.08 µM | SF-268 8.61 µM | SK-OV-3 21.3 µM | SNB-75 15.1 µM | UACC-62 5.87 µM | TK-10 12.3 µM | RXF 393 2.84 µM | IGROV-1 17.5 µM | SR 2.8 µM | OVCAR-5 23.6 µM | U-251 18.8 µM | NCI-H522 1.54 µM | SF-539 14.2 µM | UO-31 13.3 µM | SK-MEL-28 4.42 µM | M14 3.36 µM
